# Test results as given in patent US6060600A, “Substituted tetronic acids useful for treating HIV and other retroviruses” (Pharmacia & Upjohn Company, priority 1997, dated 2000).
# Square brackets hold non-standard residues; d marks the D form. Peptide text beside a SMILES is read from it. * marks the point of attachment. Sta = CC(C)C[C@H](N)[C@@H](O)CC(=O)O; Isovaleryl = CC(C)CC(=O)*
# How the values were obtained:
# HIV-1 protease = molecular target: T1, HIV-1 protease (Human immunodeficiency virus type 1 group M subtype B, UniProt P04585); assay: In vitro HIV protease inhibitory assay (fluorescently labeled substrate); assay type: biochemical; conditions: pH 5.5, one hour, room temperature
# T1 construct: The protease (or proteinase) enzyme, consisting of only 99 amino acids
# Experimental: The HIV protease screening assay is based on a fluorescently labeled substrate which can be resolved from nonlabeled cleavage product using avidin-polystyrene particles, 0.7-0.9 μm. The substrate is biotinylated at the amino terminal arginine and fluorescently labeled with fluorescein isothiocynate (FITC) at the carboxyl terminal lysine. This assay has been employed to detect novel, nonpeptidic inhibitors of HIV-1 protease. Substrate (20 μl of 0.2 μM), sample (10 μl of desired concentration), and enzyme (10 μl of 0.1 μM) are added to a 96 well pandex plate. The assay is run in 0.1 M sodium acetate buffer at pH 5.5 in the presence of 1.0 M sodium chloride and 0.05% NP-40 and incubated in the dark for one hour at room temperature. Avidin coated polystyrene beads (40 μl of 0.1% (w/v)) are added and the incubation is continued in the dark for an additional half hour. The labeled cleavage product is separated from the unreacted substrate via filtration and is read on the IDEXX Screen Machine. (IDEXX Corporation--Portland, Maine) The data are analyzed by appropriate computer algorithms to ascertain percent inhibition values.
# The Activity Table showing the results of the HIV Protease Inhibitory Assay appears below in TABLE 1. The table has three columns, the left column provides the code number of the compound for easy cross reference to structure tables and detailed procedures, the middle column provides the concentration of test compound and the column on the right provides the percent inhibition.
# [1] = test system: viral reverse transcriptase; conditions: cited from earlier work
# HIV-I protease = conditions: Seelmeier et al.; cited from earlier work
# [2] = HIV-1 Dose 3.3 (unit not given)
# [3] = HIV-1 Dose 10.0 (unit not given)
# [4] = HIV-1 Dose 30.0 (unit not given)
Structure (SMILES),% Inhibition (HIV-1 protease; [2]) [%],% Inhibition (HIV-1 protease; [3]) [%],% Inhibition (HIV-1 protease; [4]) [%],inhibitor of viral reverse transcriptase [1],inhibitor of HIV-I protease (HIV-I protease)
CCCC1(CCC)OC(=O)C(C(c2cccc(N(C)S(=O)(=O)c3ccc(C#N)cc3)c2)C2CC2)=C1O (centres unmarked) [AX-1],103.5,111.53,102.32,–,–
"Cc1cn([C@H]2C[C@H](N=[N+]=[N-])[C@@H](CO)O2)c(=O)[nH]c1=O [AZT, 3-azido-3-deoxythymidine]",–,–,–,known inhibitor of viral reverse transcriptase,–
N#Cc1ccc(S(=O)(=O)Nc2cccc(C(C3=C(O)C4(CCN(C(=O)OCC5c6ccccc6-c6ccccc65)CC4)OC3=O)C3CC3)c2)cc1 (centres unmarked) [BX-1],113.09,126.98,123.63,–,–
N#Cc1ccc(S(=O)(=O)Nc2cccc(C(C3=C(O)C4(CCNCC4)OC3=O)C3CC3)c2)cc1 (centres unmarked) [BX-2],90.58,103.27,101.26,–,–
N#Cc1ccc(S(=O)(=O)Nc2cccc(C(C3=C(O)C4(CCN(CC5c6ccccc6-c6ccccc65)CC4)OC3=O)C3CC3)c2)cc1 (centres unmarked) [BX-3],108.72,107,103.12,–,–
CCN1CCC2(CC1)OC(=O)C(C(c1cccc(NS(=O)(=O)c3ccc(C#N)cc3)c1)C1CC1)=C2O (centres unmarked) [BX-4],71.3,94.47,101.07,–,–
CN1CCC2(CC1)OC(=O)C(C(c1cccc(NS(=O)(=O)c3ccc(C#N)cc3)c1)C1CC1)=C2O (centres unmarked) [BX-5],61.58,85.22,98.54,–,–
CC(=O)N1CCC2(CC1)OC(=O)C(C(c1cccc(NS(=O)(=O)c3ccc(C#N)cc3)c1)C1CC1)=C2O (centres unmarked) [CX-1],107.43,98.33,103.37,–,–
N#Cc1ccc(S(=O)(=O)Nc2cccc(C(C3=C(O)C4(CCN(C(=O)c5ccccc5)CC4)OC3=O)C3CC3)c2)cc1 (centres unmarked) [CX-2],107.56,109.04,110.58,–,–
CCCC1(CCC)OC(=O)C(C(c2cccc(NS(=O)(=O)c3cccnn3)c2)C2CC2)=C1O (centres unmarked) [DX-1],108.97,109.57,113.85,–,–
CCC1CCCCC12OC(=O)C(C(c1cccc(NS(=O)(=O)c3ccc(C#N)cc3)c1)C1CC1)=C2O (centres unmarked) [DX-2],115.79,115.80,113.98,–,–
CCC1CCCCC12OC(=O)C(C(c1cccc(NS(=O)(=O)c3ccc(C#N)cc3)c1)C1CC1)=C2O (centres unmarked) [DX-3],117.26,110.16,113.83,–,–
C=CCC1(CC=C)OC(=O)C(C(c2ccccc2)C2CC2)=C1O (centres unmarked) [DX-4],108.42,106.81,106.29,–,–
CC(C)CC(=O)N[C@H](C(=O)N[C@H](C(=O)N[C@@H](CC(C)C)[C@@H](O)CC(=O)N[C@@H](C)C(=O)N[C@@H](CC(C)C)[C@@H](O)CC(=O)O)C(C)C)C(C)C [Pepstatin A] (Isovaleryl-VV[Sta]A[Sta]-OH),–,–,–,–,inhibitor of HIV-I protease
